According to US11084790B2, “Insoluble complex or solvate thereof, pharmaceutical composition and use thereof” (Fruithy Holdings Limited, priority 2017, dated 2021):
≈ marks a conversion by molar mass, not a printed value.

Assay: Test on the solubility in a simulated body fluid
Assay type: physicochemical
Conditions: for Compound concentration: DTTA / Compound concentration: Ropivacaine / Compound concentration: Bupivacaine / Compound concentration: Pamoic acid / solubility / Compound concentration: DBTA / Compound concentration: naphthol phosphate: 0.01 M PBS pH 7.4, 37° C.; for solubility at 24 h: phosphate buffered saline (simulated body fluid), 37 °C, aqueous buffer, thermodynamic from solid, read-out: Saturated solubility
Experimental: Test on the Solubility in a Simulated Body Fluid
The concentration of the drug dissolved in the PBS buffered solution was determined with an HPLC-a method.

[1] = simulated body fluid, 0.01 M PBS at pH 7.4

SMILES	Compound concentration: DTTA (5 min)	Compound concentration: Ropivacaine (5 min)	Compound concentration: DTTA (15 min)	Compound concentration: Ropivacaine (15 min)	Compound concentration: DTTA (30 min)	Compound concentration: Ropivacaine (30 min)	Compound concentration: DTTA (1 h)	Compound concentration: Ropivacaine (1 h)	Compound concentration: DTTA (2 h)	Compound concentration: Ropivacaine (2 h)	Compound concentration: DTTA (6 h)	Compound concentration: Ropivacaine (6 h)	Compound concentration: DTTA (24 h)	Compound concentration: Bupivacaine (5 min)	Compound concentration: Bupivacaine (15 min)	Compound concentration: Bupivacaine (30 min)	Compound concentration: Bupivacaine (1 h)	Compound concentration: Bupivacaine (2 h)	Compound concentration: Bupivacaine (6 h)	Compound concentration: Bupivacaine (24 h)	also measured
CCCCN1CCCCC1C(=O)Nc1c(C)cccc1C.CCCCN1CCCCC1C(=O)Nc1c(C)cccc1C.O=C(O)c1cc2ccccc2c(Cc2c(O)c(C(=O)O)cc3ccccc23)c1O [bis(bupivacaine) pamoate]	–	–	–	–	–	–	–	–	–	–	–	–	–	–	–	–	–	–	–	–	Saturated solubility [1]: 300 µM
CCCN1CCCC[C@H]1C(=O)Nc1c(C)cccc1C.CCCN1CCCC[C@H]1C(=O)Nc1c(C)cccc1C.Cc1ccc(C(=O)OC(C(=O)O)C(OC(=O)c2ccc(C)cc2)C(=O)O)cc1 (centres unmarked) [Preparation Example 6, bis(ropivacaine) di-p-toluoyl tartarate]	13380.8 µM	26058.5 µM	15017.3 µM	29888.8 µM	18586.4 µM	38657.6 µM	19990.1 µM	41983.6 µM	19679 µM	41011.1 µM	19617.2 µM	40777.8 µM	22843.9 µM	–	–	–	–	–	–	–	Compound concentration: Ropivacaine (24 h): 47445.3 µM
CCCN1CCCC[C@H]1C(=O)Nc1c(C)cccc1C [Ropivacaine free base, reference compound]	–	–	–	–	–	–	–	–	–	–	–	–	–	–	–	–	–	–	–	–	solubility at 24 h [1]: 1360 µM (≈ 373 µg/mL)
CCCN1CCCC[C@H]1C(=O)Nc1c(C)cccc1C.Cc1ccc(C(=O)OC(C(=O)O)C(OC(=O)c2ccc(C)cc2)C(=O)O)cc1 (centres unmarked) [Preparation Example 5, mono(ropivacaine) di-p-toluoyl tartarate]	6676.8 µM	7268.7 µM	6612.8 µM	7215.5 µM	6704 µM	7287.2 µM	6752.1 µM	7343.7 µM	6988 µM	7630.4 µM	6971.8 µM	7604.1 µM	7073.8 µM	–	–	–	–	–	–	–	Compound concentration: Ropivacaine (24 h): 7648.9 µM
CCCCN1CCCCC1C(=O)Nc1c(C)cccc1C.CCCCN1CCCCC1C(=O)Nc1c(C)cccc1C.O=C(O)c1cc2ccccc2c(Cc2c(O)c(C(=O)O)cc3ccccc23)c1O [Preparation Example 29, bis(bupivacaine) pamoate]	–	–	–	–	–	–	–	–	–	–	–	–	–	159.8 µM	196.9 µM	241.5 µM	269.9 µM	271.3 µM	275.1 µM	305 µM	Compound concentration: Pamoic acid (5 min): 78.2 µM; Compound concentration: Pamoic acid (15 min): 97.3 µM; Compound concentration: Pamoic acid (30 min): 122.1 µM; Compound concentration: Pamoic acid (1 h): 119.5 µM; Compound concentration: Pamoic acid (2 h): 140 µM; Compound concentration: Pamoic acid (6 h): 145 µM; Compound concentration: Pamoic acid (24 h): 151.6 µM; stability of the suspension (ratio between acid radical and basic group) (simulated body fluid): stable; solubility (simulated body fluid): about 0.3 mM
CCCCN1CCCCC1C(=O)Nc1c(C)cccc1C.CCCCN1CCCCC1C(=O)Nc1c(C)cccc1C.O=C(OC(C(=O)O)C(OC(=O)c1ccccc1)C(=O)O)c1ccccc1 (centres unmarked) [Preparation Example 2, bis(bupivacaine) dibenzoyl tartarate]	–	–	–	–	–	–	–	–	–	–	–	–	–	819 µM	1593.7 µM	2133.2 µM	2848.7 µM	3565.4 µM	6577 µM	6389.6 µM	Compound concentration: DBTA (5 min): 769.6 µM; Compound concentration: DBTA (15 min): 1550.4 µM; Compound concentration: DBTA (30 min): 2183.8 µM; Compound concentration: DBTA (1 h): 3035.9 µM; Compound concentration: DBTA (2 h): 3953.3 µM; Compound concentration: DBTA (6 h): 6336.3 µM; Compound concentration: DBTA (24 h): 6122.7 µM
CCCCN1CCCCC1C(=O)Nc1c(C)cccc1C (centres unmarked) [Bupivacaine free base, reference compound]	–	–	–	–	–	–	–	–	–	–	–	–	–	–	–	–	–	–	–	–	solubility at 24 h [1]: 1450 µM (≈ 418 µg/mL)
CCCCN1CCCCC1C(=O)Nc1c(C)cccc1C.O=P1(O)Oc2ccc3ccccc3c2-c2c(ccc3ccccc23)O1 [Preparation Example 7, bupivacaine binaphthol phosphate]	–	–	–	–	–	–	–	–	–	–	–	–	–	263 µM	271.4 µM	310.5 µM	280.7 µM	314.8 µM	317.7 µM	268.4 µM	Compound concentration: naphthol phosphate (5 min): 293.5 µM; Compound concentration: naphthol phosphate (15 min): 275.6 µM; Compound concentration: naphthol phosphate (30 min): 264.3 µM; Compound concentration: naphthol phosphate (1 h): 263.3 µM; Compound concentration: naphthol phosphate (2 h): 278.9 µM; Compound concentration: naphthol phosphate (6 h): 288.4 µM; Compound concentration: naphthol phosphate (24 h): 264.6 µM; stability of the suspension (ratio between acid radical and basic group) (simulated body fluid): stable; solubility (simulated body fluid): about 0.3 mM
CCCN1CCCC[C@H]1C(=O)Nc1c(C)cccc1C.O=C(O)c1cc2ccccc2c(Cc2c(O)c(C(=O)O)cc3ccccc23)c1O [Preparation Example 9, mono(ropivacaine) pamoate]	–	347.9 µM	–	602.6 µM	–	887 µM	–	1285.6 µM	–	1660.8 µM	–	1944 µM	–	–	–	–	–	–	–	–	Compound concentration: Pamoic acid (5 min): 345.9 µM; Compound concentration: Pamoic acid (15 min): 601.5 µM; Compound concentration: Pamoic acid (30 min): 880.3 µM; Compound concentration: Pamoic acid (1 h): 1280.8 µM; Compound concentration: Pamoic acid (2 h): 1668.4 µM; Compound concentration: Pamoic acid (6 h): 1953.9 µM; Compound concentration: Pamoic acid (24 h): 2052.3 µM; Compound concentration: Ropivacaine (24 h): 1972 µM; stability of the suspension (ratio between acid radical and basic group) (simulated body fluid): stable; solubility (simulated body fluid): about 2.0 mM
CCCCN1CCCCC1C(=O)Nc1c(C)cccc1C.CCCCN1CCCCC1C(=O)Nc1c(C)cccc1C.Cc1ccc(C(=O)OC(C(=O)O)C(OC(=O)c2ccc(C)cc2)C(=O)O)cc1 (centres unmarked) [Preparation Example 4, bis(bupivacaine) di-p-toluoyl tartarate]	5161 µM	–	5399.5 µM	–	5135 µM	–	5084.8 µM	–	5068.3 µM	–	5312 µM	–	5219.7 µM	11389.4 µM	12009.1 µM	11426.9 µM	11256.7 µM	11278.1 µM	11851.8 µM	11693.3 µM	–
